Measured values taken from patent publication US20060134102A1, “Lymphotoxin beta receptor agents in combination with chemotherapeutic agents” (Biogen Idec MA Inc., priority 2002, published 2006).

Tested on: KM-20L2 human colorectal adenocarcinoma
Assay: KM-20L2 xenograft model: growth of established KM-20L2 human colorectal tumors in athymic nude mice (tumor volume/weight, % T/C, Fa, Combination Index)
Assay type: in vivo

Structure (SMILES): Nc1ccn([C@@H]2O[C@H](CO)[C@@H](O)C2(F)F)c(=O)n1 [Gemcitabine, gemcitabine, reference compound]
- Mean Fraction Affected (Fa) (Gem 5 mg/kg, Day 9): 0.097
- Mean Fraction Affected/Fraction Unaffected (Fa/Fu) (Gem 5 mg/kg, Day 9): 0.107
- Mean Tumor Volume (Gem 5 mg/kg, Day 9): 101.0 cubic mm
- Mean Tumor Volume Decrease (Gem 5 mg/kg, Day 9): 10.8 cubic mm
- Mean Fraction Affected (Fa) (Gem 5 mg/kg, Day 13): 0.178
- Mean Fraction Affected/Fraction Unaffected (Fa/Fu) (Gem 5 mg/kg, Day 13): 0.217
- Mean Tumor Volume (Gem 5 mg/kg, Day 13): 141.8 cubic mm
- Mean Tumor Volume Decrease (Gem 5 mg/kg, Day 13): 30.8 cubic mm
- Mean Fraction Affected (Fa) (Gem 5 mg/kg, Day 16): 0.230
- Mean Fraction Affected/Fraction Unaffected (Fa/Fu) (Gem 5 mg/kg, Day 16): 0.298
- Mean Tumor Volume (Gem 5 mg/kg, Day 16): 204.1 cubic mm
- Mean Tumor Volume Decrease (Gem 5 mg/kg, Day 16): 60.9 cubic mm
- Mean Fraction Affected (Fa) (Gem 5 mg/kg, Day 20): 0.310
- Mean Fraction Affected/Fraction Unaffected (Fa/Fu) (Gem 5 mg/kg, Day 20): 0.449
- Mean Tumor Volume (Gem 5 mg/kg, Day 20): 276.8 cubic mm
- Mean Tumor Volume Decrease (Gem 5 mg/kg, Day 20): 124.2 cubic mm
- Mean Fraction Affected (Fa) (Gem 5 mg/kg, Day 23): 0.295
- Mean Fraction Affected/Fraction Unaffected (Fa/Fu) (Gem 5 mg/kg, Day 23): 0.419
- Mean Tumor Volume (Gem 5 mg/kg, Day 23): 371.6 cubic mm
- Mean Tumor Volume Decrease (Gem 5 mg/kg, Day 23): 155.6 cubic mm
- Mean Fraction Affected (Fa) (Gem 5 mg/kg, Day 27): 0.242
- Mean Fraction Affected/Fraction Unaffected (Fa/Fu) (Gem 5 mg/kg, Day 27): 0.320
- Mean Tumor Volume (Gem 5 mg/kg, Day 27): 506.7 cubic mm
- Mean Tumor Volume Decrease (Gem 5 mg/kg, Day 27): 161.9 cubic mm
- Mean Fraction Affected (Fa) (Gem 5 mg/kg, Day 30): 0.245
- Mean Fraction Affected/Fraction Unaffected (Fa/Fu) (Gem 5 mg/kg, Day 30): 0.325
- Mean Tumor Volume (Gem 5 mg/kg, Day 30): 616.2 cubic mm
- Mean Tumor Volume Decrease (Gem 5 mg/kg, Day 30): 200.0 cubic mm
- Mean Fraction Affected (Fa) (Gem 5 mg/kg, Day 34): 0.295
- Mean Fraction Affected/Fraction Unaffected (Fa/Fu) (Gem 5 mg/kg, Day 34): 0.419
- Mean Tumor Volume (Gem 5 mg/kg, Day 34): 740.4 cubic mm
- Mean Tumor Volume Decrease (Gem 5 mg/kg, Day 34): 309.9 cubic mm
- Mean Fraction Affected (Fa) (Gem 5 mg/kg, Day 37): 0.274
- Mean Fraction Affected/Fraction Unaffected (Fa/Fu) (Gem 5 mg/kg, Day 37): 0.377
- Mean Tumor Volume (Gem 5 mg/kg, Day 37): 877.5 cubic mm
- Mean Tumor Volume Decrease (Gem 5 mg/kg, Day 37): 330.5 cubic mm
- Mean Fraction Affected (Fa) (Gem 5 mg/kg, Day 41): 0.253
- Mean Fraction Affected/Fraction Unaffected (Fa/Fu) (Gem 5 mg/kg, Day 41): 0.339
- Mean Tumor Volume (Gem 5 mg/kg, Day 41): 1075.3 cubic mm
- Mean Tumor Volume Decrease (Gem 5 mg/kg, Day 41): 364.1 cubic mm
- Mean Fraction Affected (Fa) (Gem 5 mg/kg, Day 43): 0.226
- Mean Fraction Affected/Fraction Unaffected (Fa/Fu) (Gem 5 mg/kg, Day 43): 0.291
- Mean Tumor Volume (Gem 5 mg/kg, Day 43): 1244.3 cubic mm
- Mean Tumor Volume Decrease (Gem 5 mg/kg, Day 43): 362.4 cubic mm
- Mean Fraction Affected (Fa) (Gem 10 mg/kg, Day 9): 0.084
- Mean Fraction Affected/Fraction Unaffected (Fa/Fu) (Gem 10 mg/kg, Day 9): 0.092
- Mean Tumor Volume (Gem 10 mg/kg, Day 9): 102.4 cubic mm
- Mean Tumor Volume Decrease (Gem 10 mg/kg, Day 9): 9.4 cubic mm
- Mean Fraction Affected (Fa) (Gem 10 mg/kg, Day 13): 0.184
- Mean Fraction Affected/Fraction Unaffected (Fa/Fu) (Gem 10 mg/kg, Day 13): 0.225
- Mean Tumor Volume (Gem 10 mg/kg, Day 13): 140.9 cubic mm
- Mean Tumor Volume Decrease (Gem 10 mg/kg, Day 13): 31.7 cubic mm
- Mean Fraction Affected (Fa) (Gem 10 mg/kg, Day 16): 0.362
- Mean Fraction Affected/Fraction Unaffected (Fa/Fu) (Gem 10 mg/kg, Day 16): 0.568
- Mean Tumor Volume (Gem 10 mg/kg, Day 16): 169.0 cubic mm
- Mean Tumor Volume Decrease (Gem 10 mg/kg, Day 16): 96.0 cubic mm
- Mean Fraction Affected (Fa) (Gem 10 mg/kg, Day 20): 0.422
- Mean Fraction Affected/Fraction Unaffected (Fa/Fu) (Gem 10 mg/kg, Day 20): 0.731
- Mean Tumor Volume (Gem 10 mg/kg, Day 20): 231.7 cubic mm
- Mean Tumor Volume Decrease (Gem 10 mg/kg, Day 20): 169.3 cubic mm
- Mean Fraction Affected (Fa) (Gem 10 mg/kg, Day 23): 0.410
- Mean Fraction Affected/Fraction Unaffected (Fa/Fu) (Gem 10 mg/kg, Day 23): 0.694
- Mean Tumor Volume (Gem 10 mg/kg, Day 23): 311.2 cubic mm
- Mean Tumor Volume Decrease (Gem 10 mg/kg, Day 23): 216.0 cubic mm
- Mean Fraction Affected (Fa) (Gem 10 mg/kg, Day 27): 0.376
- Mean Fraction Affected/Fraction Unaffected (Fa/Fu) (Gem 10 mg/kg, Day 27): 0.602
- Mean Tumor Volume (Gem 10 mg/kg, Day 27): 417.4 cubic mm
- Mean Tumor Volume Decrease (Gem 10 mg/kg, Day 27): 251.2 cubic mm
- Mean Fraction Affected (Fa) (Gem 10 mg/kg, Day 30): 0.388
- Mean Fraction Affected/Fraction Unaffected (Fa/Fu) (Gem 10 mg/kg, Day 30): 0.634
- Mean Tumor Volume (Gem 10 mg/kg, Day 30): 499.5 cubic mm
- Mean Tumor Volume Decrease (Gem 10 mg/kg, Day 30): 316.7 cubic mm
- Mean Fraction Affected (Fa) (Gem 10 mg/kg, Day 34): 0.388
- Mean Fraction Affected/Fraction Unaffected (Fa/Fu) (Gem 10 mg/kg, Day 34): 0.635
- Mean Tumor Volume (Gem 10 mg/kg, Day 34): 642.3 cubic mm
- Mean Tumor Volume Decrease (Gem 10 mg/kg, Day 34): 408.0 cubic mm
- Mean Fraction Affected (Fa) (Gem 10 mg/kg, Day 37): 0.401
- Mean Fraction Affected/Fraction Unaffected (Fa/Fu) (Gem 10 mg/kg, Day 37): 0.669
